Measured values: PubChem BioAssay (NCI)
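In this assay, cells in 96-well plates receive the compound at five concentrations for 48 hours. Endpoints are linearly interpolated between the surrounding concentrations. TGI denotes the concentration required for complete inhibition of growth.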

How the values were obtained:
Assay in all cases: NCI anticancer screen, dose series, 48 h
786-0 renal = system: 786-0 renal
UACC-257 melanoma = system: UACC-257 melanoma
NCI-H226 lung = system: NCI-H226 lung
HCT-15 colon = system: HCT-15 colon
SR leukemia = system: SR leukemia
TK-10 renal = system: TK-10 renal
SNB-19 CNS = system: SNB-19 CNS
HOP-92 NSCLC = system: HOP-92 NSCLC
OVCAR-5 ovarian = system: OVCAR-5 ovarian
ACHN renal = system: ACHN renal
A549 NSCLC = system: A549 NSCLC
A498 renal = system: A498 renal
SK-OV-3 ovarian = system: SK-OV-3 ovarian
MALME-3M melanoma = system: MALME-3M melanoma
IGROV1 ovarian = system: IGROV1 ovarian
OVCAR-3 ovarian = system: OVCAR-3 ovarian

Structure (SMILES) | TGI (786-0 renal) | TGI (UACC-257 melanoma) | TGI (NCI-H226 lung) | TGI (HCT-15 colon) | TGI (SR leukemia) | TGI (TK-10 renal) | TGI (SNB-19 CNS) | TGI (HOP-92 NSCLC) | TGI (OVCAR-5 ovarian) | TGI (ACHN renal) | TGI (A549 NSCLC) | TGI (A498 renal) | TGI (SK-OV-3 ovarian) | TGI (MALME-3M melanoma) | TGI (IGROV1 ovarian) | TGI (OVCAR-3 ovarian)
CCCCNC(=O)CCN(C(=O)O)S(=O)(=O)c1ccc(NC(=O)c2ccccc2)cc1 | 29.7 µM | > 100 µM | > 100 µM | > 100 µM | > 100 µM | > 100 µM | > 100 µM | > 100 µM | > 100 µM | > 100 µM | > 100 µM | > 100 µM | > 100 µM | > 100 µM | > 100 µM | > 100 µM
COC(=O)CCc1cccnc1/C=N/O | > 100 µM | > 100 µM | > 100 µM | > 100 µM | > 100 µM | > 100 µM | > 100 µM | > 100 µM | > 100 µM | > 100 µM | > 100 µM | > 100 µM | > 100 µM | > 100 µM | > 100 µM | > 100 µM
Cc1nc(Nc2ccccc2)sc1C(=O)NNc1ccc([N+](=O)[O-])cc1[N+](=O)[O-] | > 100 µM | > 100 µM | > 100 µM | > 100 µM | 65.7 µM | > 100 µM | > 100 µM |  | > 100 µM | > 100 µM | > 100 µM |  | > 100 µM | > 100 µM | > 100 µM | > 100 µM
CCCCCCCCCCCC(O)=C1C(=O)CC(O)CC1=O (stereo not given) | > 100 µM | > 100 µM | > 100 µM |  | > 100 µM | > 100 µM | > 100 µM | > 100 µM | > 100 µM | > 100 µM | > 100 µM |  | > 100 µM |  | > 100 µM | > 100 µM
Brc1ccc2c(c1)C1C(CO2)C(c2ccccc2)=NN1c1ccccc1 (stereo not given) | > 100 µM | > 100 µM |  |  |  | > 100 µM | > 100 µM | > 100 µM | > 100 µM | > 100 µM | > 100 µM | > 100 µM | > 100 µM | > 100 µM | > 100 µM | > 100 µM
Cn1nc2ccc3nccc(N(CCO)CCO)c3c2n1 | > 100 µM | > 100 µM | > 100 µM | > 100 µM | > 100 µM | > 100 µM | > 100 µM | > 100 µM | > 100 µM | > 100 µM | > 100 µM | > 100 µM | > 100 µM | > 100 µM | > 100 µM | > 100 µM
COc1ccc(N2C(=O)[C@@H]3[C@H](C2=O)c2[nH]c4ccccc4c2C2CCC(C(C)(C)C)C[C@@H]23)cc1 (stereo not given in full) | 31.1 µM | > 100 µM | 46.4 µM | > 100 µM |  | 74.6 µM | > 61.4 µM |  | > 100 µM | 87.6 µM | > 80.3 µM | 64 µM | 44.2 µM | > 85 µM | > 100 µM | > 75.7 µM
CCCCCCCCCCCCn1[nH]c(C)c(C(=S)SCCCCCCCC)c1=O | > 100 µM | > 100 µM | > 94.8 µM | > 100 µM | > 39.9 µM | > 100 µM | > 100 µM | > 100 µM | > 100 µM | > 100 µM | > 100 µM | > 100 µM | > 100 µM | > 100 µM | > 100 µM | > 100 µM
CCc1cccc(CC)c1NC(=O)C1=C(C)NC(C)=C(C(=O)Nc2c(CC)cccc2CC)C1c1ccc2c(c1)OCO2 | 29.9 µM | 35.1 µM | 28.6 µM | 26.8 µM | 65 µM | > 100 µM | 33 µM | 32.1 µM | 31.7 µM | 39 µM | 66.5 µM | 38.9 µM | 60.6 µM | 29.7 µM | 44.2 µM | 27.2 µM
CCCCCCCCCCCC(=O)c1c(O)cccc1O | 32.8 µM | 30.8 µM | 34.7 µM | 33.4 µM | 49 µM | 92.4 µM | 30.4 µM | 32.3 µM | 28.5 µM | 33.8 µM | 33.7 µM |  | 85.8 µM | 29.5 µM | 32.4 µM | 31.4 µM
CC(C)(Oc1ccc2c(=O)cc(-c3ccccc3)oc2c1)C(=O)Nc1c(Cl)cccc1Cl | > 100 µM | > 100 µM |  | > 100 µM | > 100 µM | > 100 µM | > 100 µM | > 100 µM | > 100 µM |  | > 100 µM | > 100 µM | > 100 µM | > 100 µM | > 100 µM | > 100 µM
Cc1cccc(C)c1NC(=O)CCC(=O)NC(N)=S | > 100 µM | > 100 µM | > 100 µM | > 100 µM | > 100 µM | > 100 µM | > 100 µM | > 100 µM | > 100 µM | > 100 µM | > 100 µM | > 100 µM | > 100 µM | > 100 µM | > 100 µM | > 100 µM
CC1C=C[C@H](Sc2ccccc2)CC[C@@]1(C)O (stereo not given in full) | > 100 µM | > 100 µM | > 100 µM | > 100 µM |  | > 100 µM | > 100 µM | > 100 µM | > 100 µM | > 100 µM | > 100 µM | > 100 µM | > 100 µM | > 100 µM | > 100 µM | 
O=C(O)Cn1c(=O)[nH]c(=O)c2[nH]cnc21 | > 100 µM | > 100 µM |  | > 100 µM | > 100 µM | > 100 µM | > 100 µM |  | > 100 µM | > 100 µM | > 100 µM | > 100 µM | > 100 µM | > 100 µM | > 100 µM | > 100 µM
CCc1cccc(C(C)CC)c1NC(=O)C(=O)C(CC(=O)Nc1ccc(Cl)c(Cl)c1)C(=O)OC (stereo not given) | > 100 µM | > 100 µM | > 100 µM | > 100 µM | > 100 µM | > 100 µM | > 100 µM | > 100 µM | > 100 µM | 69.8 µM | > 100 µM | > 100 µM | > 100 µM | > 100 µM | > 100 µM | > 100 µM
COc1cc(C)c(C)c(OC(=O)c2c(C)c(C)c(OC)c(C)c2OC)c1C | 53.4 µM | 78.6 µM | 72.1 µM | 18.5 µM | 22 µM | > 100 µM | > 100 µM | 53.9 µM | 91.4 µM | > 100 µM | 71.8 µM | 45.9 µM | 57.2 µM | 65.7 µM | > 100 µM | 7.15 µM
Cc1nc2c(n1CCN(C)C)C(=O)c1ccccc1C2=O | > 100 µM | 27.1 µM | > 100 µM | 26 µM | 73.2 µM | > 100 µM | 76.2 µM |  |  | 31.5 µM | 52.8 µM |  | > 100 µM | 8.06 µM | 26.5 µM | 20 µM
CC(C(=O)c1ccc(Cl)cc1)C1OC(=O)C(Cl)=C1Cl (stereo not given) | 36 µM | > 100 µM | > 100 µM | 50.5 µM |  | > 100 µM | > 100 µM |  | > 100 µM | > 100 µM | > 100 µM | > 100 µM | > 100 µM | 41.7 µM | > 100 µM | 71.9 µM
N#CC(C(=N/NC(N)=S)/C(=N/NC(N)=S)C(C#N)c1ccc(Cl)cc1)c1ccc(Cl)cc1 (stereo not given) | > 100 µM | > 100 µM | > 100 µM | > 100 µM |  | > 100 µM | > 100 µM | > 100 µM | > 100 µM | > 100 µM | > 100 µM | > 100 µM | > 100 µM | > 100 µM | > 100 µM | > 100 µM
COC(=O)C1N=CSCC1(C)O (stereo not given) | > 100 µM | > 100 µM | > 100 µM | > 100 µM |  | > 100 µM | > 100 µM | > 100 µM | > 100 µM | > 100 µM | > 100 µM | > 100 µM | > 100 µM | > 100 µM | > 100 µM | > 100 µM
COC(=O)NC(=O)c1cn(CCCOC(=O)CCCCCCCCC(=O)OCCCn2cc(C(=O)NC(=O)OC)c(=O)[nH]c2=O)c(=O)[nH]c1=O | > 100 µM | > 100 µM | > 100 µM | > 100 µM | > 100 µM | > 100 µM | 76.5 µM | 95.2 µM | > 100 µM | > 100 µM | > 100 µM | > 100 µM |  | > 100 µM | > 100 µM | > 100 µM
CCN(CC)Cc1cc(Nc2c3ccccc3nc3c4ccccc4n(C)c23)ccc1O | 14 µM | 23.3 µM | 57.4 µM | 22.8 µM |  | 28.2 µM | 33.4 µM | 18.9 µM | 21.9 µM | 24 µM | 28.2 µM | 27.8 µM | 31.6 µM | 27 µM | 31.2 µM | 
COc1ccc(NC(=O)CC(=O)N/N=C/c2ccc(N(CCC#N)S(=O)(=O)c3ccccc3)cc2)cc1 | > 100 µM | > 100 µM | > 100 µM | > 100 µM | > 100 µM | > 100 µM | > 100 µM | > 100 µM | > 100 µM | > 100 µM | > 100 µM |  | > 100 µM | > 100 µM | > 100 µM | > 100 µM
